This test addresses T1, recombinant human WRN (Homo sapiens, UniProt Q14191).
T1 construct: purchased BPS 101264
Nature of the test: Inhibition of WRN enzyme activity (ATPase), ADP-Glo Kinase Assay. In kind it is biochemical. Conditions: WRN protein 5 nM, Flap 0.1 nM, ATP 30 µM. The source says:
The following method was used to determine the degree of inhibition of recombinant human WRN ATPase activity by the compounds of the present disclosure in vitro. In this method, ADP-Glo™ Kinase Assay kit (catalog No. V9102) from Promega was used. Detailed experimental procedures can be found in the kit manual.
The experimental procedure was briefly described as follows: test compounds were first dissolved in DMSO to prepare stock solutions, followed by serial dilution using reaction buffer (30 mM Tris, pH 7.5, 2 mM MgCl2, 50 mM NaCl, 0.02% BSA, 0.1% Pluronic F127), with final concentrations of test compounds in the reaction system ranging from 1000 nM to 0.004 nM; WRN protein (purchased from BPS, catalog No. 101264), substrate 5-flap oligonucleotide (Flap26) (synthesized by Shanghai Generay Biotech Co., Ltd., sequence 5'-[…]-3'), and ATP working solution (from ADP-Glo™ Kinase Assay kit component V915A) were prepared using reaction buffer. Reactions were performed in 384-well microplates. At first the compounds and recombinant human WRN protein (final concentration 5 nM) were added to the wells and the plate was incubated at room temperature for 15 minutes, then Flap solution (final concentration 0.1 nM) and ATP solution (final concentration 30 µM) were added to the reaction solution and the plate was incubated at room temperature for 10 minutes. Subsequently, 5 µL of ADP-Glo Reagent was added to the reaction system and incubated at room temperature for 40 minutes. Then 10 µL of Kinase Detection Reagent was added to the reaction system and incubated at room temperature for 30 minutes. After the incubation was completed, chemiluminescence intensity values of each well were measured using a microplate reader in luminescence mode. The percentage inhibition of the compounds at each concentration was calculated by comparison with the luminescence intensity values of the control group (0.1% DMSO), and IC50 values of compounds were obtained by nonlinear regression analysis of compound concentration logarithm-inhibition rate using GraphPad Prism 9 software, as shown in Table 1.
The IC50 value results of the compounds of the present disclosure are expressed as AA and A, respectively as follows: "AA" indicates IC50 ≤ 1 nM; "A" indicates 1 nM < IC50 ≤ 100 nM. Table 1 IC50 of the compounds of the present disclosure for inhibiting WRN enzyme activity (ATPase)
Background: ADP-Glo turns the ADP formed in a reaction into a luminescent signal.

Where two headings read alike, the source gives them in different places.

T1 sequence (Q14191 whole entry): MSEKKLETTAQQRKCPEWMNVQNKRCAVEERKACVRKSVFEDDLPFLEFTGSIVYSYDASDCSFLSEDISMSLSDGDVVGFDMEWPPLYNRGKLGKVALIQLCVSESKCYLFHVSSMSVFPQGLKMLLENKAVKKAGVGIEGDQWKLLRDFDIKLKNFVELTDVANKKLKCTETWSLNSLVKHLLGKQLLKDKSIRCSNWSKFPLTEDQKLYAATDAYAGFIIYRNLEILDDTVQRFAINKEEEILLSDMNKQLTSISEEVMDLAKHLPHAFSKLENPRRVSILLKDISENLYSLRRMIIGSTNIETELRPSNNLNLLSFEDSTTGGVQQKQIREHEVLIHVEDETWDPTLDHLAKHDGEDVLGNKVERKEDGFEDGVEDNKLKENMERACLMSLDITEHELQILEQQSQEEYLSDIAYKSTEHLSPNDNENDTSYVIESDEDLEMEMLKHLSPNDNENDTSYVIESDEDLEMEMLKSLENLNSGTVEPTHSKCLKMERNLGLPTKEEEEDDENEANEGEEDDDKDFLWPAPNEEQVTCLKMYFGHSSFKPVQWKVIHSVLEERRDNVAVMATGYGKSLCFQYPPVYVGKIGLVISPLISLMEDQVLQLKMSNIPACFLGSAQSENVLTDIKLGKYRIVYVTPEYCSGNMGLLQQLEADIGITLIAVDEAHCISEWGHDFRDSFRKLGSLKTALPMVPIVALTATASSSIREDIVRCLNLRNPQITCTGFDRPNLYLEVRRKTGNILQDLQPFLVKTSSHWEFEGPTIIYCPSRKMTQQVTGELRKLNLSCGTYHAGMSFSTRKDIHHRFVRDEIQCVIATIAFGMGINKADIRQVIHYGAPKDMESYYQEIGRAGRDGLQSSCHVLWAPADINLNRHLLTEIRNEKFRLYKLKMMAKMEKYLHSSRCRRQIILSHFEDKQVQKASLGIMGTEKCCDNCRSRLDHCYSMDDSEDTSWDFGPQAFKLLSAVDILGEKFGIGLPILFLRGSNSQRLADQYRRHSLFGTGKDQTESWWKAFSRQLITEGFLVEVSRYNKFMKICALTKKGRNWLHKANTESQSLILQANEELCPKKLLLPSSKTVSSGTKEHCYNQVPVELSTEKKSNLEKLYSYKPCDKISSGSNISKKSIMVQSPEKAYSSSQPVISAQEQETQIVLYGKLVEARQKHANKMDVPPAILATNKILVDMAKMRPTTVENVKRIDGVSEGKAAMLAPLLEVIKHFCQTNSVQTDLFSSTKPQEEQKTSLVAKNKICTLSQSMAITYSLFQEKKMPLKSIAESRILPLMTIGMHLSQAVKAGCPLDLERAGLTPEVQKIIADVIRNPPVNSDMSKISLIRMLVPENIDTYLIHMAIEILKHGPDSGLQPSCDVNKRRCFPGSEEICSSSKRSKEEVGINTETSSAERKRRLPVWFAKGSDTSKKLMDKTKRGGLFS

For `CCc1c(N2CCN(C(=O)c3ncnc(C)c3O)CC2)c(=O)n2nc(C(C)C)nc2n1CC(=O)Nc1ccc(C(F)(F)F)cc1Cl` [Example 5, N-(2-chloro-4-(trifluoromethyl)phenyl)-2-(5-ethyl-6-(4-(5-hydroxy-6-methylpyrimidine-4-carbonyl)piperazin-1-yl)-2-isopropyl-7-oxo-[1,2,4]triazolo[1,5-a]pyrimidin-4(7H)-yl)acetamide], the IC50 (as a rule, the concentration that gives 50% inhibition) (read-out: IC50) was in the range of 1 to 100 nM.

For `CCc1c(N2CCN(C(=O)c3ncnc(C)c3O)CC2)c(=O)n2nc(C=C3CC(C(N)=O)C3)nc2n1CC(=O)Nc1ccc(C(F)(F)F)cc1Cl` (stereo not drawn) [Example 116, 3-((4-(2-((2-chloro-4-(trifluoromethyl)phenyl)amino)-2-oxoethyl)-5-ethyl-6-(4-(5-hydroxy-6-methylpyrimidine-4-carbonyl)piperazin-1-yl)-7-oxo-4,7-dihydro-[1,2,4]triazolo[1,5-a]pyrimidin-2-yl)methylene)cyclobutane-1-carboxamide], the IC50 (read-out: IC50) is 1 to 100 nM. The same measure, in the same setting: to `CCc1c(N2CCN(C(=O)c3ccncc3O)CC2)c(=O)n2nc(C3=CCCCCC3)nc2n1CC(=O)Nc1ccc(C(F)(F)F)cc1C` [Example 42, 2-(2-(cyclohept-1-en-1-yl)-5-ethyl-6-(4-(3-hydroxyisonicotinoyl)piperazin-1-yl)-7-oxo-[1,2,4]triazolo[1,5-a]pyrimidin-4(7H)-yl)-N-(2-methyl-4-(trifluoromethyl)phenyl)acetamide] belongs 1 to 100 nM; to `CCc1c(N2CCN(C(=O)c3ncnc(C)c3O)CC2)c(=O)n2nc(-c3ccn4ccnc4c3)nc2n1CC(=O)Nc1ccc(C(F)(F)F)cc1Cl` [Example 136, N-(2-chloro-4-(trifluoromethyl)phenyl)-2-(5-ethyl-6-(4-(5-hydroxy-6-methylpyrimidine-4-carbonyl)piperazin-1-yl)-2-(imidazo[1,2-a]pyridin-7-yl)-7-oxo-[1,2,4]triazolo[1,5-a]pyrimidin-4(7H)-yl)acetamide], 1 to 100 nM; to `CCc1c(N2CCN(C(=O)c3ncnc(C)c3O)CC2)c(=O)n2nc(-c3ccc4ccn(C)c4c3)nc2n1CC(=O)Nc1ccc(C(F)(F)F)cc1Cl` [Example 128, N-(2-chloro-4-(trifluoromethyl)phenyl)-2-(5-ethyl-6-(4-(5-hydroxy-6-methylpyrimidine-4-carbonyl)piperazin-1-yl)-2-(1-methyl-1H-indol-6-yl)-7-oxo-[1,2,4]triazolo[1,5-a]pyrimidin-4(7H)-yl)ac etamide], 1 to 100 nM. Same read-out and setting: then `CCc1c(N2CCN(C(=O)c3ncnc(C)c3O)CC2)c(=O)n2nc(-c3ccc4c(c3)OCC4)nc2n1CC(=O)Nc1ccc(C(F)(F)F)cc1Cl` [Example 81, N-(2-chloro-4-(trifluoromethyl)phenyl)-2-(2-(2,3-dihydrobenzofuran-6-yl)-5-ethyl-6-(4-(5-hydroxy-6-methylpyrimidine-4-carbonyl)piperazin-1-yl)-7-oxo-[1,2,4]triazolo[1,5-a]pyrimidin-4(7H)-yl)acetamide], with 1 to 100 nM. On to `CCc1c(N2CCN(C(=O)c3ncnc(C)c3O)CC2)c(=O)n2nc(-c3ccc4cnn(C)c4c3)nc2n1CC(=O)Nc1ccc(C(F)(F)F)cc1Cl` [Example 139, N-(2-chloro-4-(trifluoromethyl)phenyl)-2-(5-ethyl-6-(4-(5-hydroxy-6-methylpyrimidine-4-carbonyl)piperazin-1-yl)-2-(1-methyl-1H-indazol-6-yl)-7-oxo-[1,2,4]triazolo[1,5-a]pyrimidin-4(7H)-yl) acetamide], for which the IC50 was in the range of 1 to 100 nM.

Consider `CCc1c(N2CCN(C(=O)c3ncnc(C)c3O)CC2)c(=O)n2nc(-c3ccc4c(c3)ncn4C)nc2n1CC(=O)Nc1ccc(C(F)(F)F)cc1Cl` [Example 111, N-(2-chloro-4-(trifluoromethyl)phenyl)-2-(5-ethyl-6-(4-(5-hydroxy-6-methylpyrimidine-4-carbonyl)piperazin-1-yl)-2-(1-methyl-1H-benzo[d]imidazol-5-yl)-7-oxo-[1,2,4]triazolo[1,5-a]pyrimidin-4(7H)-yl)acetamide], for which the IC50 (read-out: IC50) fell in the range of 1 to 100 nM. On the same count and under the same terms, then `CCc1c(N2CCN(C(=O)c3ncccc3O)CC2)c(=O)n2nc(C3=CCCCCC3)nc2n1CC(=O)Nc1ccc(S(F)(F)(F)(F)F)cc1` [Example 46, 2-(2-(cyclohept-1-en-1-yl)-5-ethyl-6-(4-(3-hydroxypicolinoyl)piperazin-1-yl)-7-oxo-[1,2,4]triazolo[1,5-a]pyrimidin-4(7H)-yl)-N-(4-(pentafluoro-λ^6-sulfaneyl)phenyl)acetamide], with 1 to 100 nM; and `CCc1c(N2CCN(C(=O)c3ncnc(C)c3O)CC2)c(=O)n2nc(-c3ccc4c(c3)CC(=O)N4)nc2n1CC(=O)Nc1ccc(C(F)(F)F)cc1Cl` [Example 141, N-(2-chloro-4-(trifluoromethyl)phenyl)-2-(5-ethyl-6-(4-(5-hydroxy-6-methylpyrimidine-4-carbonyl)piperazin-1-yl)-7-oxo-2-(2-oxoindolin-5-yl)-[1,2,4]triazolo[1,5-a]pyrimidin-4(7H)-yl)acetamide], with 1 to 100 nM.

As to `CCc1c(N2CCN(C(=O)c3ncnc(C)c3O)CC2)c(=O)n2nc(C3=CCCCOC3)nc2n1CC(=O)Nc1ccc(SC(F)(F)F)cc1Cl` [Example 165, N-(2-chloro-4-((trifluoromethyl)thio)phenyl)-2-(5-ethyl-6-(4-(5-hydroxy-6-methylpyrimidine-4-carbonyl)piperazin-1-yl)-7-oxo-2-(2,5,6,7-tetrahydrooxepin-3-yl)-[1,2,4]triazolo[1,5-a]pyrimidin-4(7H)-yl)acetamide], where the note is “read-out: IC50”, the IC50 fell in the range of 1 to 100 nM.

Take `CCc1c(N2CCN(C(=O)c3ncnc(C)c3O)CC2)c(=O)n2nc(-c3ccc4nc(N5CCOCC5)sc4c3)nc2n1CC(=O)Nc1ccc(C(F)(F)F)cc1Cl` [Example 171, N-(2-chloro-4-(trifluoromethyl)phenyl)-2-(5-ethyl-6-(4-(5-hydroxy-6-methylpyrimidine-4-carbonyl)piperazin-1-yl)-2-(2-morpholinobenzo[d]thiazol-6-yl)-7-oxo-[1,2,4]triazolo[1,5-a]pyrimidin-4(7H)-yl)acetamide]: the IC50 (read-out: IC50) was in the range of 1 to 100 nM. Same read-out and setting: then `CCc1c(N2CCN(C(=O)c3ncnc(C)c3O)CC2)c(=O)n2nc(C3CCCC3)nc2n1CC(=O)Nc1ccc(C(F)(F)F)cc1Cl` [Example 2, N-(2-Chloro-4-(trifluoromethyl)phenyl)-2-(2-cyclopentyl-5-ethyl-6-(4-(5-hydroxy-6-methylpyrimidine-4-carbonyl)piperazin-1-yl)-7-oxo-[1,2,4]triazolo[1,5-a]pyrimidin-4(7H)-yl)acetamide], with 1 to 100 nM. Regarding `CCc1c(N2CCN(C(=O)c3ncnc(C)c3O)CC2)c(=O)n2nc(/C=C/C(=O)N3CCC3)nc2n1CC(=O)Nc1ccc(C(F)(F)F)cc1Cl` [Example 194, (E)-2-(2-(3-(azetidin-1-yl)-3-oxoprop-1-en-1-yl)-5-ethyl-6-(4-(5-hydroxy-6-methylpyrimidine-4-carbonyl)piperazin-1-yl)-7-oxo-[1,2,4]triazolo[1,5-a]pyrimidin-4(7H)-yl)-N-(2-chloro-4-(trifluor omethyl)phenyl)acetamide], the 50% inhibitory concentration (IC50) (read-out: IC50) was in the range of 1 to 100 nM. On the same count and under the same terms, then `CCc1c(N2CCN(C(=O)c3ncnc(C)c3O)CC2)c(=O)n2nc(-c3ccc4ncnn4c3)nc2n1CC(=O)Nc1ccc(C(F)(F)F)cc1Cl` [Example 135, 2-(2-([1,2,4]triazolo[1,5-a]pyridin-6-yl)-5-ethyl-6-(4-(5-hydroxy-6-methylpyrimidine-4-carbonyl)piperazin-1-yl)-7-oxo-[1,2,4]triazolo[1,5-a]pyrimidin-4(7H)-yl)-N-(2-chloro-4-(trifluoromethyl)phenyl)acetamide], with 1 to 100 nM.

The values above are taken from EP4800015A1, “AZABICYCLO DERIVATIVE AND PREPARATION METHOD THEREFOR, AND USE” (Zhejiang Hisun Pharmaceutical Co., Ltd., priority 2023, dated 2025).
